Assay results: US6737383B1, “Herbicidal oxadiazolidines” (priority 1999, dated 2004)

How the values were obtained:
morningglory = test: Test B pre/postemergence morningglory; type: in vivo, Ipomoea hederacea
How it was run: (§1)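 Herbicidal effect was estimated by eye on a ten-point control scale after plants spent twelve to sixteen days in a greenhouse following soil or foliar treatment. Foliar sprays targeted plants at one to four leaves; all doses were formulated in a non-phytotoxic solvent with surfactant.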

giant foxtail = test: Test B pre/postemergence giant foxtail; type: in vivo, Setaria faberii
How it was run: as §1

rape = test: Test B pre/postemergence rape; type: in vivo, Brassica napus
How it was run: as §1

pigweed = test: Test B pre/postemergence pigweed; type: in vivo, Amaranthus retroflexus
How it was run: as §1

[1] = Preemergence, Rate 62 g/ha, scale of 0 to 10 where 0 is no effect and 10 is complete control
[2] = Preemergence, Rate 250 g/ha, scale of 0 to 10 where 0 is no effect and 10 is complete control
[3] = Preemergence, Rate 500 g/ha, scale of 0 to 10 where 0 is no effect and 10 is complete control
[4] = Rate 62 g/ha, Postemergence, scale 0 to 10 (0 no effect, 10 complete control)
[5] = Rate 125 g/ha, Postemergence, scale of 0 to 10 where 0 is no effect and 10 is complete control
[6] = Rate 250 g/ha, Postemergence, scale of 0 to 10 where 0 is no effect and 10 is complete control
[7] = Rate 62 g/ha, Postemergence, scale of 0 to 10 where 0 is no effect and 10 is complete control
[8] = Rate 125 g/ha, Postemergence, scale 0 to 10
[9] = Rate 125 g/ha, Preemergence, scale of 0 to 10 where 0 is no effect and 10 is complete control
[10] = Rate 500 g/ha, Postemergence, scale 0 to 10, 0 no effect, 10 complete control
[11] = Postemergence, Rate 62 g/ha, scale 0 to 10, 0 is no effect, 10 is complete control
[12] = Postemergence, Rate 125 g/ha, scale of 0 to 10 where 0 is no effect and 10 is complete control
[13] = Postemergence, Rate 250 g/ha, scale of 0 to 10, 0 is no effect, 10 is complete control
[14] = Postemergence, Rate 500 g/ha, scale of 0 to 10 where 0 is no effect and 10 is complete control
[15] = Preemergence, Rate 125 g/ha, scale of 0 to 10 where 0 is no effect and 10 is complete control
[16] = Preemergence, Rate 250 g/ha, scale 0 to 10 (0 no effect, 10 complete control)
[17] = Preemergence, Rate 31 g/ha, visual rating, scale 0 to 10 (0 no effect, 10 complete control)
[18] = Preemergence, Rate 62 g/ha, scale 0 to 10 (0 no effect, 10 complete control)
[19] = Preemergence, Rate 125 g/ha, 0 is no effect, 10 is complete control
[20] = Preemergence, Rate 250 g/ha, scale 0 to 10, 0 is no effect, 10 is complete control
[21] = Rate 31 g/ha, Postemergence, scale 0 to 10
[22] = Rate 250 g/ha, Postemergence, scale 0 to 10, 0 is no effect, 10 is complete control

Cc1cccc(C(C)(C)C)c1-n1c(=O)on(C(=O)N(c2ccccc2)C(C)C)c1=O [Compound 303]
Morningglory plant response rating (morningglory; [1]): 0
Morningglory plant response rating (0 to 10 scale) (morningglory; Preemergence, Rate 125 g/ha): 0
Morningglory plant response rating (morningglory; [2]): 0
Morningglory plant response rating (morningglory; [3]): 3
Morningglory plant response rating (morningglory; [4]): 0
Morningglory plant response rating (morningglory; [5]): 0
Plant response rating, Morningglory (morningglory; [6]): 0
Giant foxtail plant response rating (giant foxtail; [1]): 0
Giant foxtail plant response rating (0 to 10 scale) (giant foxtail; Preemergence, Rate 125 g/ha): 0
Giant foxtail plant response rating (giant foxtail; [2]): 0
Giant foxtail plant response rating (giant foxtail; [3]): 0
Giant foxtail plant response rating (giant foxtail; [4]): 0
Giant foxtail plant response rating (giant foxtail; [5]): 0
Plant response rating, Giant foxtail (giant foxtail; [6]): 0
Rape plant response rating (rape; [1]): 0
Rape plant response rating (0 to 10 scale) (rape; Preemergence, Rate 125 g/ha): 0
Rape plant response rating (rape; [2]): 0
Rape plant response rating (rape; [3]): 0
Rape plant response rating (rape; [4]): 0
Rape plant response rating (rape; [5]): 0
Plant response rating, Rape (rape; [6]): 0
Redroot pigweed plant response rating (pigweed; [1]): 0
Redroot pigweed plant response rating (0 to 10 scale) (pigweed; Preemergence, Rate 125 g/ha): 0
Redroot pigweed plant response rating (pigweed; [2]): 0
Redroot pigweed plant response rating (pigweed; [3]): 0
Redroot pigweed plant response rating (pigweed; [4]): 0
Redroot pigweed plant response rating (pigweed; [5]): 0
Plant response rating, Redroot pigweed (pigweed; [6]): 2

Cc1ccccc1-n1c(=O)on(C(=O)N(c2ccc(C(C)C)cc2)C(C)C)c1=O [Compound 231]
Morningglory plant response rating (morningglory; [1]): 0
Morningglory plant response rating (morningglory; [2]): 0
Plant response rating, Morningglory (morningglory; [3]): 6
Morningglory plant response rating (morningglory; [7]): 1
Morningglory plant response rating (morningglory; [8]): 2
Morningglory plant response rating (morningglory; [9]): 0
Plant response rating (0 to 10; 0 is no effect, 10 is complete control), Morningglory (morningglory; Rate 250 g/ha, Postemergence): 3
Morningglory plant response rating (morningglory; [10]): 4
Giant foxtail plant response rating (giant foxtail; [1]): 0
Giant foxtail plant response rating (giant foxtail; [2]): 3
Plant response rating, Giant foxtail (giant foxtail; [3]): 8
Giant foxtail plant response rating (giant foxtail; [7]): 0
Giant foxtail plant response rating (giant foxtail; [8]): 0
Giant foxtail plant response rating (giant foxtail; [9]): 0
Plant response rating (0 to 10; 0 is no effect, 10 is complete control), Giant foxtail (giant foxtail; Rate 250 g/ha, Postemergence): 0
Giant foxtail plant response rating (giant foxtail; [10]): 0
Rape plant response rating (rape; [1]): 0
Rape plant response rating (rape; [2]): 0
Plant response rating, Rape (rape; [3]): 0
Rape plant response rating (rape; [7]): 0
Rape plant response rating (rape; [8]): 0
Rape plant response rating (rape; [9]): 0
Plant response rating (0 to 10; 0 is no effect, 10 is complete control), Rape (rape; Rate 250 g/ha, Postemergence): 0
Rape plant response rating (rape; [10]): 0
Redroot pigweed plant response rating (pigweed; [1]): 0
Redroot pigweed plant response rating (pigweed; [2]): 0
Plant response rating, Redroot pigweed (pigweed; [3]): 0
Redroot pigweed plant response rating (pigweed; [7]): 0
Redroot pigweed plant response rating (pigweed; [8]): 0
Redroot pigweed plant response rating (pigweed; [9]): 0
Plant response rating (0 to 10; 0 is no effect, 10 is complete control), Redroot pigweed (pigweed; Rate 250 g/ha, Postemergence): 0
Redroot pigweed plant response rating (pigweed; [10]): 0

CC(C)N(C(=O)n1oc(=O)n(CC(=O)C2CCC2)c1=O)c1ccc(F)cc1F [Compound 642]
Plant response rating, Morningglory (morningglory; [11]): 0
Morningglory plant response rating (morningglory; [12]): 0
Morningglory plant response rating (morningglory; [13]): 0
Plant response rating, Morningglory (morningglory; [14]): 3
Morningglory plant response rating (morningglory; [1]): 0
Morningglory plant response rating (morningglory; [15]): 0
Plant response rating, Morningglory (morningglory; [16]): 0
Plant response rating, Morningglory (morningglory; [3]): 0
Plant response rating, Giant foxtail (giant foxtail; [11]): 0
Giant foxtail plant response rating (giant foxtail; [12]): 0
Giant foxtail plant response rating (giant foxtail; [13]): 4
Plant response rating, Giant foxtail (giant foxtail; [14]): 7
Giant foxtail plant response rating (giant foxtail; [1]): 8
Giant foxtail plant response rating (giant foxtail; [15]): 10
Plant response rating, Giant foxtail (giant foxtail; [16]): 10
Plant response rating, Giant foxtail (giant foxtail; [3]): 10
Plant response rating, Rape (rape; [11]): 0
Rape plant response rating (rape; [12]): 0
Rape plant response rating (rape; [13]): 0
Plant response rating, Rape (rape; [14]): 0
Rape plant response rating (rape; [1]): 0
Rape plant response rating (rape; [15]): 2
Plant response rating, Rape (rape; [16]): 4
Plant response rating, Rape (rape; [3]): 9
Plant response rating, Redroot pigweed (pigweed; [11]): 0
Redroot pigweed plant response rating (pigweed; [12]): 0
Redroot pigweed plant response rating (pigweed; [13]): 0
Redroot pigweed plant response rating (pigweed; [1]): 0
Redroot pigweed plant response rating (pigweed; [15]): 0
Plant response rating, Redroot pigweed (pigweed; [16]): 2
Plant response rating, Redroot pigweed (pigweed; [3]): 8

Cc1noc(C)c1-n1c(=O)on(C(=O)N(c2ccc(F)cc2F)C(C)C)c1=O [Compound 156]
Morningglory plant response rating (morningglory; [12]): 1
Morningglory plant response rating (morningglory; [17]): 0
Morningglory plant response rating (morningglory; [18]): 0
Morningglory plant response rating (0 to 10 scale) (morningglory; [19]): 0
Morningglory plant response rating (morningglory; [20]): 0
Morningglory plant response rating (morningglory; [21]): 0
Morningglory plant response rating (morningglory; [7]): 0
Plant response rating, Morningglory (morningglory; [22]): 2
Giant foxtail plant response rating (giant foxtail; [12]): 0
Giant foxtail plant response rating (giant foxtail; [17]): 0
Giant foxtail plant response rating (giant foxtail; [18]): 0
Giant foxtail plant response rating (0 to 10 scale) (giant foxtail; [19]): 2
Giant foxtail plant response rating (giant foxtail; [20]): 7
Giant foxtail plant response rating (giant foxtail; [21]): 0
Giant foxtail plant response rating (giant foxtail; [7]): 0
Plant response rating, Giant foxtail (giant foxtail; [22]): 0
Rape plant response rating (rape; [12]): 0
Rape plant response rating (rape; [17]): 0
Rape plant response rating (rape; [18]): 0
Rape plant response rating (0 to 10 scale) (rape; [19]): 0
Rape plant response rating (rape; [20]): 0
Rape plant response rating (rape; [21]): 0
Rape plant response rating (rape; [7]): 0
Plant response rating, Rape (rape; [22]): 0
Redroot pigweed plant response rating (pigweed; [12]): 0
Redroot pigweed plant response rating (pigweed; [17]): 0
Redroot pigweed plant response rating (pigweed; [18]): 0
Redroot pigweed plant response rating (0 to 10 scale) (pigweed; [19]): 4
Redroot pigweed plant response rating (pigweed; [20]): 9
Redroot pigweed plant response rating (pigweed; [21]): 0
Redroot pigweed plant response rating (pigweed; [7]): 0
Plant response rating, Redroot pigweed (pigweed; [22]): 0

CC(C)N(C(=O)n1oc(=O)n(Cc2nnsc2Cl)c1=O)c1ccc(F)cc1F [Compound 320]
Morningglory plant response rating (morningglory; [1]): 0
Morningglory plant response rating (0 to 10 scale) (morningglory; Preemergence, Rate 125 g/ha): 0
Morningglory plant response rating (morningglory; [2]): 0
Morningglory plant response rating (morningglory; [3]): 0
Morningglory plant response rating (morningglory; [4]): 1
Morningglory plant response rating (morningglory; [5]): 1
Plant response rating, Morningglory (morningglory; [6]): 3
Giant foxtail plant response rating (giant foxtail; [1]): 0
Giant foxtail plant response rating (giant foxtail; [2]): 6
Giant foxtail plant response rating (giant foxtail; [3]): 7
Giant foxtail plant response rating (giant foxtail; [4]): 0
Giant foxtail plant response rating (giant foxtail; [5]): 0
Plant response rating, Giant foxtail (giant foxtail; [6]): 0
Rape plant response rating (rape; [1]): 0
Rape plant response rating (0 to 10 scale) (rape; Preemergence, Rate 125 g/ha): 0
Rape plant response rating (rape; [2]): 0
Rape plant response rating (rape; [3]): 0
Rape plant response rating (rape; [4]): 0
Rape plant response rating (rape; [5]): 3
Plant response rating, Rape (rape; [6]): 3
Redroot pigweed plant response rating (pigweed; [1]): 0
Redroot pigweed plant response rating (0 to 10 scale) (pigweed; Preemergence, Rate 125 g/ha): 0
Redroot pigweed plant response rating (pigweed; [2]): 0
Redroot pigweed plant response rating (pigweed; [3]): 0
Redroot pigweed plant response rating (pigweed; [4]): 3
Redroot pigweed plant response rating (pigweed; [5]): 6
Plant response rating, Redroot pigweed (pigweed; [6]): 6
